# Test results as given in US8835501B2, “Pharmaceutical formulations of HDAC inhibitors” (TopoTarget UK Limited, priority 2005, dated 2014).
# Values joined by “and” are separate entries in the source; they are usually repeats but may differ in a detail not shown here. Identical values can stand only once. Like-named read-outs stand apart in the source and are kept apart here.
# What was measured:
# [1] = Solubility enhancement with acidic and basic in situ salt formers (~[…])
# [2] = Dilution experiments of saturated HDACi/salt former solutions; type: physicochemical; conditions: for appearance after dilution with pH 7.4 phosphate buffer: 0.47 M and 0.314 M saturated samples
# [3] = cited from earlier work
# [4] = Phase solubility for arginine and meglumine
# [5] = humans, given as a nutritional additive; cited from earlier work
# [6] = Solubility of PXD-101 in demineralised water; type: physicochemical
# [7] = Solubility enhancement with cyclodextrin and in situ salt formers; type: physicochemical
# [8] = physchem; conditions: thermodynamic from solid, PXD-101 Concentration
# [9] = human, in vivo, iv
# [10] = Oral administration of PXD-101 (gelatin capsule) to subjects; type: in vivo, human
# Description: Several subjects received PXD-101 in an oral formulation (e.g., PXD-101 in a gelatin capsule). […] Bioavailability for the oral formulation was approximately 33%.
# [11] = Plasma PK analysis after 30-min I.V. infusion in subjects with advanced cancer; type: in vivo, human
# Procedure: Plasma PK analysis was performed for subjects of all dose groups on days 1 and 5 of cycle 1 following 30 minutes of I.V. infusion.
# [12] = pH solubility profile in buffered 25% w/v HP-β-CD; type: physicochemical
# Description: It was noted that zwitterions can be self-buffering and this effect caused some instability in the buffering capacity of the buffer systems at high pH. Therefore, the required pH could only be achieved by adjusting the pH of the system by the addition of 1 M NaOH.
# [13] = test system: histone (H4 and/or H3) acetylation in peripheral blood mononuclear cells; experiment: Pharmacodynamic analysis: histone acetylation in peripheral blood mononuclear cells; type: in vivo, human; conditions: intravenous administration
# Description: Histones were isolated and probed with anti-acetylated histone (H4 and/or H3) antibody followed by HRP-secondary antibody.
# [14] = Solubility enhancement with cyclodextrins (saturated PXD-101 samples; HP-β-CD phase solubility); type: physicochemical; conditions: saturated PXD-101 in aqueous cyclodextrin 250 mg/mL (α-CD 100 mg/mL)
# Procedure: Saturated samples of PXD-101 were prepared in aqueous solutions of two natural cyclodextrins (α-CD and γ-CD) and hydroxypropyl derivatives of the α, β and γ cyclodextrins (HP-α-CD, HP-β-CD and HP-γ-CD). […] The calculated saturated solubilities of the complexed HDACi were plotted against the concentration of cyclodextrin. […] This type of phase solubility diagram for cyclodextrins is referred to as an A-Type phase solubility plot. […] This deviation may be due to experimental error caused by the decision to use of mass, instead of volume, to dispense the more concentrated cyclodextrin samples due to their viscosity. Alternatively, it is possible that there is a slight deviation from the linear A-Type phase solubility behaviour.
# [15] = PXD-101 in acidic in situ salt former, […]
# [16] = PXD-101 in basic in situ salt former, […]
# [17] = 150 mg/m^2, 30-min I.V. infusion, cycle 1
# [18] = 300 mg/m^2, 30-min I.V. infusion, cycle 1
# [19] = 600 mg/m^2, 30-min I.V. infusion, cycle 1
# [20] = 900 mg/m^2, 30-min I.V. infusion, cycle 1
# [21] = 1200 mg/m^2, 30-min I.V. infusion, cycle 1
structure (smiles),measurement,setting,value
O=C(O)CC(O)C(=O)O (centres unmarked) [Malic Acid],pH of Solution,[1]; [15],2.19
same,S/D Molar ratio (salt former-to-HDACi),"[1]; acidic in situ salt former, […]",309
NC(CO)(CO)CO [Tris],pH of Solution,[1]; [16],8.97
NCCN [Ethylenediamine],dilution of saturated HDACi solution to infusion concentration of […],[2]; basic salt former solutions diluted with 5% w/v glucose and 0.9% w/v saline,incompatibility
O=C(O)[C@H](O)[C@@H](O)[C@H](O[C@@H]1O[C@H](CO)[C@H](O)[C@H](O)[C@H]1O)[C@H](O)CO [Lactobionic Acid],pH of Solution,[1]; [15],2.43
NCCCC[C@H](N)C(=O)O [Lysine],pH of Solution,[1],9.11
OCCNCCO [Diethanolamine],pH of Solution,[1]; [16],9.13
"CNC[C@H](O)[C@@H](O)[C@H](O)[C@H](O)CO [Meglumine, 1-deoxy-1-(methylamino)-D-glucitol]",solubility in water,[3]; 25° C.,~100 g in 100 mL
same,appearance after dilution with pH 7.4 phosphate buffer,[2],turbid solutions
same,pH of saturated HDACi solution,"[4]; basic salt ×1, 0.157 M",9.20
same,pH of saturated HDACi solution,"[4]; basic salt ×2, 0.314 M",9.33
same,pH of saturated HDACi solution,"[4]; basic salt ×3, 0.47 M",9.40
same,Predicted Salt Former Conc. to achieve target PXD-101 Conc.,[4]; target PXD-101 50 mg/mL,79.2 mg/mL
same,Predicted Salt Former Conc. to achieve target PXD-101 Conc.,[4]; target PXD-101 70 mg/mL,126.9 mg/mL
same,Predicted Salt Former Conc. to achieve target PXD-101 Conc.,[4]; target PXD-101 100 mg/mL,158.3 mg/mL
O=C(O)/C=C\C(=O)O [Maleic Acid],pH of Solution,[1]; [15],1.65
"N=C(N)NCCC[C@H](N)C(=O)O [Arginine, (S)-2-amino-5-[(aminoiminomethyl)-amino]pentanoic acid]",content of saturated aqueous solution,"[3]; water, 21° C.",15 % w/w
same,appearance after dilution with pH 7.4 phosphate buffer,[2],initially clear solutions but some crystallisation
same,well tolerated dose,[5],up to 30 g/kg
"O=C(/C=C/c1cccc(S(=O)(=O)Nc2ccccc2)c1)NO [PXD-101, N-hydroxy-3-(3-phenylsulfamoyl-phenyl)-acrylamide]",solubility,[6],0.14 mg/mL
same,PXD-101 Concentration,[7]; 25% w/v HP-β-CD + arginine 0.157 M (27.4 mg/mL),39.2 mg/mL
same,PXD-101 Concentration,[7]; 25% w/v HP-β-CD + arginine 0.314 M (54.8 mg/mL),57.1 mg/mL and 57.0 mg/mL
same,PXD-101 Concentration,[7]; 25% w/v HP-β-CD + meglumine 0.157 M (30.7 mg/mL),43.0 mg/mL
same,PXD-101 Concentration,[7]; 25% w/v HP-β-CD + meglumine 0.314 M (61.4 mg/mL),62.5 mg/mL
same,enhancement of HDACi solubility,"[7]; using one or more of cyclodextrin, arginine, meglumine",~500 fold
same,solubility thermodynamic,"[8]; pH 9.07, aqueous with cosolvent or surfactant or cyclodextrin",13.5 mg/mL
same,solubility thermodynamic,"[8]; pH 9.1, aqueous with cosolvent or surfactant or cyclodextrin",7.9 mg/mL
same,solubility thermodynamic,"[8]; pH 9.19, aqueous with cosolvent or surfactant or cyclodextrin",31.1 mg/mL
same,solubility thermodynamic,"[8]; pH 9.2, aqueous with cosolvent or surfactant or cyclodextrin",21.2 mg/mL
same,solubility thermodynamic,"[8]; pH 9.33, aqueous with cosolvent or surfactant or cyclodextrin",39.1 mg/mL
same,solubility thermodynamic,"[8]; pH 9.4, aqueous with cosolvent or surfactant or cyclodextrin",57.3 mg/mL
same,laboratory tests / hematological toxicity,[9],no hematological toxicity was identified
same,main HDACi-related adverse events,[9],"fatigue, nausea, vomiting (infusion-related), and phlebitis"
same,other adverse events,[9],"headache, diarrhea, constipation, and dyspnea"
same,"plasma levels, oral versus intravenous","[10]; 900 and 1200 mg/m^2, FIG. 12",remain higher when dosed orally
same,bioavailability,"[10]; human, plasma, oral formulation (gelatin capsule)",~33%
same,tolerability,"[10]; oral dosing, preliminary data",good tolerability
same,AUC0-t/AUC0-∞,[11]; [17],99.0 ± 0.7%
same,AUCday 5/AUCday 1,[11]; [17],115 ± 22%
same,CLs,[11]; [17],122.6 ± 30.6 L/hr/m^2
same,Vd,[11]; [17],115.1 ± 43.5 L/m^2
same,AUC0-t/AUC0-∞,[11]; [18],99.7 ± 0.1%
same,AUCday 5/AUCday 1,[11]; [18],112 ± 21%
same,CLs,[11]; [18],94.6 ± 34.9 L/hr/m^2
same,Vd,[11]; [18],88.8 ± 31.8 L/m^2
same,AUC0-t/AUC0-∞,[11]; [19],99.9 ± 0.0%
same,AUCday 5/AUCday 1,[11]; [19],97%
same,CLs,[11]; [19],59.6 ± 16.0 L/hr/m^2
same,Cmax,[11]; [19],31177 ± 8968 ng/mL
same,Vd,[11]; [19],57.6 ± 13.9 L/m^2
same,AUC0-t/AUC0-∞,[11]; [20],99.8 ± 0.1%
same,CLs,[11]; [20],63.5 ± 16.4 L/hr/m^2
same,Vd,[11]; [20],48.8 ± 9.8 L/m^2
same,AUC0-t/AUC0-∞,[11]; [21],99.8 ± 0.1%
same,CLs,[11]; [21],66.6 ± 33.5 L/hr/m^2
same,Vd,[11]; [21],90.2 ± 87.3 L/m^2
same,accumulation on repeated dosing,[11]; I.V. days 1 to 5,no HDACi accumulation
same,dose dependence of plasma levels and AUC,"[11]; I.V., 150-1200 mg/m^2",dose proportional
same,AUC(0-t),"[11]; human, plasma, iv, 150 mg/m^2, 30-min I.V. infusion, cycle 1",1270 ± 272 ng·h/mL
same,Cmax,"[11]; human, plasma, iv, 150 mg/m^2, 30-min I.V. infusion, cycle 1, read-out: Cmax",6560 ± 2160 ng/mL
same,half-life,"[11]; human, plasma, iv, 150 mg/m^2, 30-min I.V. infusion, cycle 1, read-out: t1/2",46.6 ± 8.7 min
same,AUC(0-t),"[11]; human, plasma, iv, 300 mg/m^2, 30-min I.V. infusion, cycle 1",3500 ± 1100 ng·h/mL
same,Cmax,"[11]; human, plasma, iv, 300 mg/m^2, 30-min I.V. infusion, cycle 1, read-out: Cmax",15500 ± 6240 ng/mL
same,half-life,"[11]; human, plasma, iv, 300 mg/m^2, 30-min I.V. infusion, cycle 1, read-out: t1/2",44.6 ± 8 min
same,AUC(0-t),"[11]; human, plasma, iv, 600 mg/m^2, 30-min I.V. infusion, cycle 1",10700 ± 3010 ng·h/mL
same,half-life,"[11]; human, plasma, iv, 600 mg/m^2, 30-min I.V. infusion, cycle 1, read-out: t1/2",43.4 ± 6.7 min
same,AUC(0-t),"[11]; human, plasma, iv, 900 mg/m^2, 30-min I.V. infusion, cycle 1",14700 ± 3410 ng·h/mL
same,Cmax,"[11]; human, plasma, iv, 900 mg/m^2, 30-min I.V. infusion, cycle 1, read-out: Cmax",53800 ± 6380 ng/mL
same,half-life,"[11]; human, plasma, iv, 900 mg/m^2, 30-min I.V. infusion, cycle 1, read-out: t1/2",54.2 ± 8.7 min
same,AUC(0-t),"[11]; human, plasma, iv, 1200 mg/m^2, 30-min I.V. infusion, cycle 1",22000 ± 11000 ng·h/mL
same,Cmax,"[11]; human, plasma, iv, 1200 mg/m^2, 30-min I.V. infusion, cycle 1, read-out: Cmax",52400 ± 12700 ng/mL
same,half-life,"[11]; human, plasma, iv, 1200 mg/m^2, 30-min I.V. infusion, cycle 1, read-out: t1/2",85.5 ± 19.6 min
same,half-life,"[11]; human, plasma, iv, I.V., across dose levels 150-1200 mg/m^2, read-out: elimination half-life",47 to 86 min
same,PXD-101 Conc.,"[12]; pH adjusted with 1M NaOH, actual pH 8.91",36.0 mg/mL
same,PXD-101 Conc.,"[12]; target pH 4, actual pH 4.35",14.5 mg/mL
same,PXD-101 Conc.,"[12]; target pH 6, actual pH 5.99",17.3 mg/mL
same,PXD-101 Conc.,"[12]; target pH 7.4, actual pH 7.28",18.8 mg/mL
same,PXD-101 Conc.,"[12]; target pH 9.5, actual pH 8.09",19.4 mg/mL
same,time after administration at which increased acetylated histones could be detected,[13],up to 24 hours
"OC[C@H]1O[C@@H]2O[C@H]3[C@H](O)[C@@H](O)[C@@H](O[C@H]4[C@H](O)[C@@H](O)[C@@H](O[C@H]5[C@H](O)[C@@H](O)[C@@H](O[C@H]6[C@H](O)[C@@H](O)[C@@H](O[C@H]7[C@H](O)[C@@H](O)[C@@H](O[C@H]1[C@H](O)[C@H]2O)O[C@@H]7CO)O[C@@H]6CO)O[C@@H]5CO)O[C@@H]4CO)O[C@@H]3CO [α-CD, α-cyclodextrin]",HDACi (PXD-101) Concentration,[14],0.65 mg/mL
